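These data come from cells grown in 96-well plates and exposed to compound for 48 hours at five concentrations. Abbreviation: GI50, concentration required for 50% inhibition of growth. TGI: concentration producing complete growth inhibition.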
Legend:
Assay in all cases: DTP human tumour cell line panel, 48 h
NCI-H226 lung = tested on: NCI-H226 lung
HOP-62 NSCLC = tested on: HOP-62 NSCLC
NCI-H522 lung = tested on: NCI-H522 lung
T-47D breast = tested on: T-47D breast
HOP-92 NSCLC = tested on: HOP-92 NSCLC
IGROV1 ovarian = tested on: IGROV1 ovarian
A549 NSCLC = tested on: A549 NSCLC
ACHN renal = tested on: ACHN renal
UO-31 renal = tested on: UO-31 renal
MDA-MB-435 = tested on: MDA-MB-435

| SMILES | GI50 (NCI-H226 lung) | TGI (NCI-H226 lung) | GI50 (HOP-62 NSCLC) | TGI (HOP-62 NSCLC) | GI50 (NCI-H522 lung) | TGI (NCI-H522 lung) | GI50 (T-47D breast) | TGI (T-47D breast) | GI50 (HOP-92 NSCLC) | TGI (HOP-92 NSCLC) | GI50 (IGROV1 ovarian) | TGI (IGROV1 ovarian) | GI50 (A549 NSCLC) | TGI (A549 NSCLC) | GI50 (ACHN renal) | TGI (ACHN renal) | TGI (UO-31 renal) | GI50 (UO-31 renal) | GI50 (MDA-MB-435) | TGI (MDA-MB-435) |
| --- | --- | --- | --- | --- | --- | --- | --- | --- | --- | --- | --- | --- | --- | --- | --- | --- | --- | --- | --- | --- |
| CN(C)c1ccc2[nH]c3c(C(N)=O)cc(=O)c(=O)c=3oc2c1 | 4.74 µM | > 100 µM | 2.42 µM | > 100 µM | 0.687 µM | 8.24 µM | 1.81 µM | > 100 µM | 1.72 µM | 8.58 µM | 1.95 µM | 14.2 µM | 3.19 µM | > 100 µM | 0.767 µM | 8.98 µM |  |  |  |  |
| CN1CCN(c2nc(N)c(Br)c(Cl)n2)CC1 |  |  |  | > 100 µM |  | > 100 µM |  |  |  | > 100 µM |  | > 100 µM |  | > 100 µM |  | > 100 µM | > 100 µM |  |  |  |
| CCOC(=O)C1C(=O)CC(=O)C2CCCCC21 (configuration not stated) |  |  |  | > 100 µM |  | > 100 µM |  |  |  | > 100 µM |  | > 100 µM |  | > 100 µM |  | > 100 µM | > 100 µM |  |  |  |
| CC(=O)OCC1OC(n2c(=S)n(-c3ccccc3)c(=O)c3cc(Br)ccc32)C(OC(C)=O)C1OC(C)=O (configuration not stated) |  | > 100 µM |  | > 100 µM |  | > 100 µM |  |  |  | > 100 µM |  | > 100 µM |  | > 100 µM |  | > 100 µM | > 100 µM |  |  |  |
| O=C(CI)Nc1ccc(Br)cc1 | 3.78 µM | 19.2 µM | 1.89 µM | 3.82 µM | 1.53 µM | 3.47 µM |  |  |  |  | 2.35 µM | 4.88 µM | 5.89 µM | 29.3 µM | 2 µM | 4.06 µM | 3.17 µM | 1.63 µM | 2.04 µM | 4.7 µM |
| CCCCOC(=O)NC(=O)c1cn(CCCOC(=O)CCCCCCCCC(=O)OCCCn2cc(C(=O)NC(=O)OCCCC)c(=O)n(C)c2=O)c(=O)n(C)c1=O |  | > 100 µM |  | > 100 µM |  | > 100 µM |  |  |  | > 100 µM |  | > 100 µM |  | > 100 µM |  | > 100 µM | > 100 µM |  |  |  |
| CC12CCc3ccccc3C1=NNC(=O)C2 (configuration not stated) |  | > 100 µM |  | > 100 µM |  | > 100 µM |  |  |  | > 100 µM |  | > 100 µM |  | > 100 µM |  | > 100 µM | > 100 µM |  |  |  |
| COc1cc(O)c(C(=O)/C=C/c2ccc(OC)c(OCc3ccccc3)c2)c(OC)c1 |  | > 100 µM |  | > 100 µM |  | > 100 µM |  |  |  | > 100 µM |  | > 100 µM |  | > 100 µM |  | > 100 µM | > 100 µM |  |  |  |
| O=C1/C(=C/c2ccc(C(F)(F)F)cc2)COc2ccc(O)c(O)c21 | 1.59 µM | 3.09 µM | 1.65 µM | 3.41 µM | 0.216 µM | 0.515 µM |  |  | 1.97 µM | 6.67 µM | 0.476 µM | 1.84 µM | 1.51 µM | 3.15 µM | 1.11 µM | 2.31 µM | 1.95 µM | 0.633 µM | 1.26 µM | 2.68 µM |
| N#CC(/C(CCCC(=O)Nc1cccc([N+](=O)[O-])c1)=N\NC(=O)c1c(O)ccc2ccccc12)c1nc2ccccc2s1 (configuration not stated) |  | 72 µM |  | 95.4 µM |  | > 100 µM |  |  |  | > 100 µM |  | > 100 µM |  | > 100 µM |  | > 100 µM | > 100 µM |  |  |  |
| O=C(CCc1ccccc1)CC1OC(=O)C(Cl)=C1Cl (configuration not stated) |  |  |  | 55.6 µM |  | 28.5 µM |  |  |  | 41.1 µM |  | 40.8 µM |  | > 100 µM |  | 38.6 µM | 34 µM |  |  |  |
| CN(CCCCCl)P(=O)(OCc1ccc([N+](=O)[O-])o1)OCC1OC(n2cc([N+](=O)[O-])c(=O)[nH]c2=O)CC1O (configuration not stated) | 42.3 µM | > 100 µM | 41.2 µM | > 100 µM | > 100 µM | > 100 µM | > 100 µM | > 100 µM |  |  | > 100 µM | > 100 µM | > 100 µM | > 100 µM | 17.5 µM | > 100 µM | > 100 µM | > 100 µM | > 100 µM | > 100 µM |
| COc1ccc(C(=O)C(C(=O)C(=O)NCCCNC(=O)C(=O)C(C(=O)c2ccc(OC)cc2)c2ccc(OC)cc2)c2ccc(OC)cc2)cc1 (configuration not stated) |  | > 100 µM |  | > 100 µM |  | > 100 µM |  |  |  | > 100 µM |  | > 100 µM |  | > 100 µM |  |  | > 100 µM |  |  |  |
| CC(=O)C1C(=O)C(=O)N(CCN2C(=O)C(=O)C(C(C)=O)C2=O)C1=O (configuration not stated) |  | > 100 µM |  | > 100 µM |  | > 100 µM |  |  |  | > 100 µM |  | > 100 µM |  |  |  | > 100 µM | > 100 µM |  |  |  |
| C=CCSC(C)=O |  | > 100 µM |  | > 100 µM |  | > 100 µM |  | > 100 µM |  |  |  | > 100 µM |  | > 100 µM |  | > 100 µM | > 100 µM |  |  | > 100 µM |
| Cc1cc(N2CCOCC2)nc(NCc2cc(Nc3ccnc4cc(Cl)ccc34)ccc2F)n1 | 2.06 µM | 4.31 µM | 1.51 µM | 2.96 µM | 1.95 µM | 3.85 µM | 1.38 µM | 3.41 µM |  |  | 1.64 µM | 3.92 µM | 1.87 µM | 3.6 µM | 1.83 µM | 3.33 µM | 3 µM | 1.57 µM | 1.56 µM | 2.92 µM |
| CN(C)N=Nc1ccc(S(N)(=O)=O)cc1 |  | > 100 µM |  | > 100 µM |  | > 100 µM |  |  |  | > 100 µM |  | > 100 µM |  | > 100 µM |  | > 100 µM | > 100 µM |  |  |  |
| Cc1ccc(S(=O)(=O)C2CC2(Cl)Cl)cc1 (configuration not stated) |  | > 100 µM |  |  |  | 26.7 µM |  |  |  | 47.8 µM |  | 72.1 µM |  | > 100 µM |  | 70.8 µM | > 100 µM |  |  |  |
| CSc1nnc(C(C#N)C#N)nn1 |  | > 100 µM |  | > 100 µM |  | > 100 µM |  |  |  | > 100 µM |  | > 100 µM |  | > 100 µM |  |  | > 100 µM |  |  |  |
